Series [1] is filed under the species Homo sapiens. Briefly: Inhibition of reduced carboxymethylated-kappa-casein (unknown origin) conversion to amyloid fibrils at 1:2 protein to compound molar ratio after 1000 mins by thioflavin T fluorescence assay relative to control.
For series [2], the species on record is Homo sapiens. Briefly: Inhibition of reduced carboxymethylated-kappa-casein (unknown origin) conversion to amyloid fibrils at 1:0.1 protein to compound molar ratio after 1000 mins by thioflavin T fluorescence assay relative to control.
The species named for series [3] is Homo sapiens. Briefly: Inhibition of reduced carboxymethylated-kappa-casein (unknown origin) conversion to amyloid fibrils at 1:0.5 protein to compound molar ratio after 1000 mins by thioflavin T fluorescence assay relative to control.
Series [4] concerns the target Amyloid-beta precursor protein (Homo sapiens) (UniProt P05067). In words: Inhibition of amyloid beta (1 to 40) (unknown origin) aggregation at 1:0.1 to 1:2 protein to compound molar ratio after 20 hrs by transmission electron microscopic analysis.
The species entered for series [5] is Homo sapiens. Briefly: (§1) Inhibition of reduced carboxymethylated-kappa-casein (unknown origin) conversion to amyloid fibrils after 1000 mins by thioflavin T fluorescence assay.
A short description of series [6]: as §1. Further details: species or system Homo sapiens.
The species entered for series [7] is Homo sapiens. In words: Inhibition of reduced carboxymethylated-kappa-casein (unknown origin) conversion to amyloid fibrils assessed as decrease in number of long, unbranched and mature amyloid fibrils at 1:2 protein to compound molar ratio after 1000 mins by transmission electron microscopic analysis.
The species named for series [8] is Homo sapiens. In words: Inhibition of reduced carboxymethylated-kappa-casein (unknown origin) conversion to amyloid fibrils at 1:1 protein to compound molar ratio after 1000 mins by thioflavin T fluorescence assay relative to control.
The nature of series [9]: Cytotoxicity against rat PC12 cells assessed as cell viability at 5 uM after 48 hrs by MTT assay. The series is classed as cell-based. The note with it: pc-12, 48 h. (Formazan colour is commonly taken as a measure of viable cells.)
The test system of a further series is PC-12. In words: Effect on RCM-kappa-casein-induced cytotoxicity against rat PC12 cells at 1:0.1 to 1:0.5 protein to compound molar ratio after 48 hrs by MTT assay. The series is classed as functional, cell-based.
Series [10] can be described thus: Effect on RCM-kappa-casein-induced cytotoxicity against rat PC12 cells assessed as increase in cell viability at 1:2 protein to compound molar ratio after 48 hrs by MTT assay relative to control. It is filed as functional, PC-12.
For series [11], the species on record is Homo sapiens. In words: Binding affinity to reduced carboxymethylated-kappa-casein (unknown origin) at 1:2 protein to compound molar ratio after 20 hrs by far-UV-CD spectroscopic analysis.
Series [12] addresses Amyloid-beta precursor protein (Homo sapiens) (UniProt P05067). In words: Inhibition of amyloid beta (1 to 40) (unknown origin) aggregation at 1:0.1 to 1:2 protein to compound molar ratio up to 10 hrs by thioflavin T fluorescence assay.
Series [13] can be described thus: Reduction in RCM-kappa-casein-induced cytotoxicity against rat PC12 cells after 48 hrs by MTT assay. It is filed as functional, cell-based. The note with it: PC-12.
The species named for series [14] is Homo sapiens. In words: Inhibition of reduced carboxymethylated-kappa-casein (unknown origin) conversion to amyloid fibrils at 0.1:1 to 2:1 compound to protein molar ratio after 1000 mins by thioflavin T fluorescence assay.

Structures are written as SMILES. Activity calls are given as the source filed them. The rule behind the calls is not given here.

Sequence of Amyloid-beta precursor protein (Homo sapiens) (P05067 whole entry): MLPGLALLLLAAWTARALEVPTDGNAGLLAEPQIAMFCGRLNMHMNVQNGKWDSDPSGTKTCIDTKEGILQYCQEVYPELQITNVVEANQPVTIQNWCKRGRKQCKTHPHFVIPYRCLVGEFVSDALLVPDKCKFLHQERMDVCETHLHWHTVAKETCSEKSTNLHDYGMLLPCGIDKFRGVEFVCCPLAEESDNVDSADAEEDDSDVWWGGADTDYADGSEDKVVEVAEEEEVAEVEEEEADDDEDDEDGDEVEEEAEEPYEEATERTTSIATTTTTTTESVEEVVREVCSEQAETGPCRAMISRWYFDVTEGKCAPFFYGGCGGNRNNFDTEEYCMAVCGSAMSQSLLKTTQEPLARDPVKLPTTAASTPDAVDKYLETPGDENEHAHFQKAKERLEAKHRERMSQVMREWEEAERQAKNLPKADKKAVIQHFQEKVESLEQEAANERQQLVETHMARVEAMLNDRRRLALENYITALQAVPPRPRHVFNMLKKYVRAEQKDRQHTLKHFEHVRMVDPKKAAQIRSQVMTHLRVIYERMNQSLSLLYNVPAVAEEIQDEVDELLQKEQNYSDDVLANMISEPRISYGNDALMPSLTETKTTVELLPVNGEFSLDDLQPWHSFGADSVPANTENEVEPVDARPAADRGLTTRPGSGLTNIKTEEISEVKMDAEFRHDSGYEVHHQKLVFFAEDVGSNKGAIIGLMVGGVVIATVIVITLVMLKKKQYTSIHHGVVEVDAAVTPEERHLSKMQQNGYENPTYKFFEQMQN

Usually inhibition stands for the drop in the measured response relative to a control, in per cent. As to `C[C@@H]1O[C@@H](OC[C@H]2O[C@@H](Oc3cc4c(O)cc(O)cc4[o+]c3-c3ccc(O)c(O)c3)[C@H](O)[C@@H](O)[C@@H]2O)[C@H](O)[C@H](O)[C@H]1O`, the inhibition in the series listed under Homo sapiens [1] stood at 54%.
What is called IC50 is the concentration at which inhibition is half-maximal. Low values mean greater potency in that assay, high ones weaker potency in that assay. Take `O=C(O)c1cc(O)c(O)c(O)c1` [GALLIC ACID]: the inhibition in the series filed under Homo sapiens [2] is 3%; in the series listed under Homo sapiens [3] it was 54%; in the series listed under Homo sapiens [5] it was “Dose-dependent effect”; in the series filed under Homo sapiens [8] it was 87%; in the series listed under Homo sapiens [1], 98%. Besides, the inhibition entry (in series [4]; in the series listed under Homo sapiens [7]; in [12]) was “Active” throughout. Further, 7.7 µM corresponded to half-maximal inhibition in series [6] (IC50). Also, the Activity entry was “Non-toxic” in series [9], 88% in [10] and “Dose-dependent effect” in [13]. For the same compound, the result with PC-12 was inactive. For the same compound, in the series filed under Homo sapiens [11], the outcome was Active.
As for `Oc1cc(O)c2c(c1)OC(c1ccc(O)c(O)c1)C(O)C2` (configuration not stated), in the series listed under Homo sapiens [14], the inhibition entry was “inactive”.
For the compound `Oc1cc(O)c2c(c1)O[C@H](c1ccc(O)c(O)c1)[C@H](O)C2`, in the series filed under Homo sapiens [14], the inhibition result was “inactive”.

(Values after ChEMBL document CHEMBL3085665, “Gallic acid is the major component of grape seed extract that inhibits amyloid fibril formation” (Bioorg Med Chem Lett, 2013).)
